Marks after values point to notes of the source that are not given here.
Columns and labels:
[1] = test system: Erysiphe graminis f sp. tritici; assay: Test J: wheat powdery mildew, preventive spray on wheat seedlings, visual disease rating; conditions: for Test J rating (% disease control) / Test J rating (% disease control), value marked *: wheat powdery mildew, preventive spray; for Test J rating (% disease control): 100 = 100% disease control, 0 = no control; for Test J rating (% disease control), value marked *: rating marked with asterisk (different test condition, key not given)
[2] = test system: Puccinia recondita f. sp. tritici; assay: Test I: wheat leaf rust, preventive spray on wheat seedlings, visual disease rating; conditions: for Test I rating (% disease control) / Test I rating (% disease control), value marked *: wheat leaf rust, preventive spray; for Test I rating (% disease control): 100 = 100% disease control, 0 = no control; for Test I rating (% disease control), value marked *: rating marked with asterisk (different test condition, key not given)
Botrytis cinerea = assay: Test B: tomato Botrytis, preventive spray on tomato seedlings, visual disease rating; conditions: for Test B rating (% disease control) / Test B rating (% disease control), value marked *: tomato Botrytis, preventive spray; for Test B rating (% disease control): 100 = 100% disease control, 0 = no control; for Test B rating (% disease control), value marked *: rating marked with asterisk (different test condition, key not given)
Septoria tritici = assay: Test G: wheat leaf blotch, preventive spray on wheat seedlings, visual disease rating; conditions: for Test G rating (% disease control) / Test G rating (% disease control), value marked *: wheat leaf blotch, preventive spray; for Test G rating (% disease control): 100 = 100% disease control, 0 = no control; for Test G rating (% disease control), value marked *: rating marked with asterisk (different test condition, key not given)
Septoria nodorum = assay: Test F: Septoria glume blotch, preventive spray on wheat seedlings, visual disease rating; conditions: for Test F rating (% disease control): Septoria glume blotch on wheat, 100 = 100% disease control, 0 = no control; for Test F rating (% disease control) / Test F rating (% disease control), value marked *: preventive spray; for Test F rating (% disease control), value marked *: Septoria glume blotch, rating marked with asterisk (different test condition, key not given)
Alternaria solani = assay: Test C: tomato early blight, preventive spray on tomato seedlings, visual disease rating; conditions: for Test C rating (% disease control) / Test C rating (% disease control), value marked *: tomato early blight, preventive spray; for Test C rating (% disease control): 100 = 100% disease control, 0 = no control; for Test C rating (% disease control), value marked *: rating marked with asterisk (different test condition, key not given)
[3] = test system: Puccinia recondita f. sp. tritici; assay: Test H: wheat leaf rust, curative spray on inoculated wheat seedlings, visual disease rating; conditions: for Test H rating (% disease control) / Test H rating (% disease control), value marked *: wheat leaf rust, curative spray; for Test H rating (% disease control): 100 = 100% disease control, 0 = no control; for Test H rating (% disease control), value marked *: rating marked with asterisk (different test condition, key not given)

| SMILES | Test J rating (% disease control) [1] [%] | Test I rating (% disease control) [2] [%] | Test B rating (% disease control) (Botrytis cinerea) [%] | Test G rating (% disease control) (Septoria tritici) [%] | Test F rating (% disease control) (Septoria nodorum) [%] | Test C rating (% disease control) (Alternaria solani) [%] | Test H rating (% disease control) [3] [%] | further results |
| --- | --- | --- | --- | --- | --- | --- | --- | --- |
| Cc1nn(C)c(Nc2c(F)cc(Br)cc2F)c1-c1ccc(F)cc1Cl [Compound 365, N-(4-bromo-2,6-difluorophenyl)-4-(2-chloro-4-fluorophenyl)-1,3-dimethyl-1H-pyrazol-5-amine] |  |  |  |  |  |  |  | pest or weed control at 200 µg/mL ([1]; Blumeria graminis, in Triticum aestivum, 192 h, read-out: Test J disease control rating): 100%; pest or weed control at 200 µg/mL ([2]; 192 h, read-out: Test I disease control rating): 100%; pest or weed control at 200 µg/mL (Botrytis cinerea; Botrytis cinerea, in Solanum lycopersicum, 120 h, read-out: Test B disease control rating): 100%; pest or weed control at 200 µg/mL (Septoria tritici; Zymoseptoria tritici, in Triticum aestivum, 504 h, read-out: Test G disease control rating): 100%; pest or weed control at 200 µg/mL (Septoria nodorum; Parastagonospora nodorum, in Triticum aestivum, 192 h, read-out: Test F disease control rating): 64%; pest or weed control at 200 µg/mL (Alternaria solani; Alternaria solani, in Solanum lycopersicum, 168 h, read-out: Test C disease control rating): 99%; pest or weed control at 200 µg/mL ([3]; 144 h, read-out: Test H disease control rating): 74% |
| COc1cc(OC)cc(-c2c(C)nn(C)c2Oc2ccc(Cl)cc2)c1 [compound 16] | 0 | 28 | 60 | 47 | 0 | 0 | 48 |  |
| Cc1nn(C)c(Nc2ccc(Cl)cc2)c1-c1ccc(F)cc1Cl [compound 19] | 98 | 92 | 100 | 96 | 0 | 85 | 0 |  |
| Cc1nn(C)c(Oc2ccc([N+](=O)[O-])cc2F)c1-c1ccc(F)cc1Cl [compound 20] | 99 | 100 | 100 | 100 | 100 | 99 | 79 |  |
| COc1cc(F)c(Nc2c(-c3cccc(Cl)c3)c(C)nn2C)c(F)c1 [compound 25] | 79 | 94 | 100 | 100 | 0 | 0 | 0 |  |
| Cc1nn(C)c(Oc2ccc([N+](=O)[O-])cc2)c1-c1c(F)cc(F)cc1F [compound 26] | 100 | 99 | 99 | 100 | 0 | 83 | 0 |  |
| Cc1nn(C)c(Oc2ccc(Cl)cc2)c1-c1c(F)cc(F)cc1F [compound 27] | 87 | 25 | 99 | 95 | 0 | 88 | 0 |  |
| Cc1nn(C)c(Nc2c(F)cc(F)cc2F)c1-c1ccc(Cl)cc1 [compound 28] | 0 | 91 | 99 | 96 | 0 | 0 | 7 |  |
| COc1cc(F)c(Nc2c(-c3ccc(Cl)cc3)c(C)nn2C)c(F)c1 [compound 29] | 0 | 46 | 94 | 98 | 0 | 0 | 0 |  |
| Cc1nn(C)c(Oc2c(Cl)cc(C(F)(F)F)cc2Cl)c1-c1c(F)cc(F)cc1F [compound 30] | 0 | 79 | 7 | 41 | 0 | 0 | 0 |  |
| Cc1nn(C)c(Oc2c(F)cc(C#N)cc2F)c1-c1c(F)cc(F)cc1F [compound 31] |  |  |  |  |  |  |  | Test J rating (% disease control), value marked * [1]: 60* %; Test I rating (% disease control), value marked * [2]: 79* %; Test B rating (% disease control), value marked * (Botrytis cinerea): 99* %; Test G rating (% disease control), value marked * (Septoria tritici): 47* %; Test F rating (% disease control), value marked * (Septoria nodorum): 0* %; Test C rating (% disease control), value marked * (Alternaria solani): 98* %; Test H rating (% disease control), value marked * [3]: 15* % |
| Cc1nn(C)c(Oc2ccc([N+](=O)[O-])cc2Cl)c1-c1c(F)cc(F)cc1F [compound 32] | 97 | 99 | 99 | 96 | 0 | 0 | 0 |  |
| Cc1nn(C)c(Nc2c(F)cccc2F)c1-c1ccc(Cl)cc1 [compound 33] | 0 | 18 | 0 | 95 | 0 | 0 | 0 |  |
| COc1cc(F)c(-c2c(C)nn(C)c2Nc2ccc(Cl)nc2)c(F)c1 [compound 34] |  |  |  |  |  |  |  | Test J rating (% disease control), value marked * [1]: 0* %; Test I rating (% disease control), value marked * [2]: 76* %; Test B rating (% disease control), value marked * (Botrytis cinerea): 100* %; Test G rating (% disease control), value marked * (Septoria tritici): 96* %; Test F rating (% disease control), value marked * (Septoria nodorum): 0* %; Test C rating (% disease control), value marked * (Alternaria solani): 97* %; Test H rating (% disease control), value marked * [3]: 0* % |
| Cc1nn(C)c(Nc2c(F)cc(F)cc2F)c1-c1ccc(F)c(F)c1 [compound 35] | 100 | 97 | 100 | 95 | 0 | 0 | 0 |  |

From patent publication US10448639B2, “Fungicidal pyrazoles” (FMC CORPORATION, priority 2009, dated 2019)
